Molecules are shown by their SMILES.

Results on three compounds are retold here after patent publication US20050020658A1, “Selective cyclooxygenase-2 inhibitor patch” (priority 2002, published 2005).

A short description of data set [1]: Solubility of celecoxib and valdecoxib in various solvents at room temperature. Type of data set: physicochemical. The method, then: In order to identify candidate solvent systems for patch formulations of selective COX-2 inhibitory drugs of low water solubility, various solvents were tested for solubility of celecoxib and valdecoxib at room temperature.
Data set [2] can be described thus: In vitro skin permeation of poultice, tape and gel formulations, Franz diffusion cell. Type of data set: in vitro ADME, rat. The method, then: A 15 mm disk of the membrane was placed on a diffusion cell filled with the receptor fluid and the diffusion cell was maintained at 32° C. A 10 mM solution of each drug in NMP was placed in an amount of 1 ml on the membrane. […] The test was conducted in 3 replicates. […] The test solutions in this example comprised celecoxib or valdecoxib at a concentration of 1% weight/volume in various solvents. The test was conducted in 3 replicates. A 25 mm disk was punched from each poultice and placed on a Franz diffusion cell. […]

A short description of data set [3]: Skin flux of 10 mM drug solutions in NMP, Franz diffusion cell. In kind it is in vitro ADME, rat. As to conditions: 10 mM solution in NMP, 1 ml; receptor 10% NMP in phosphate buffer saline pH 7.4; 32° C.; 3 replicates. How it is done:
A 15 mm disk of the membrane was placed on a diffusion cell filled with the receptor fluid and the diffusion cell was maintained at 32° C. A 10 mM solution of each drug in NMP was placed in an amount of 1 ml on the membrane. […] The test was conducted in 3 replicates.

The nature of data set [4]: In vitro skin permeation of 1% drug solutions, Franz diffusion cell. Type of data set: in vitro ADME, rat. The method, then: A 15 mm disk of the membrane was placed on a diffusion cell filled with the receptor fluid and the diffusion cell was maintained at 32° C. A 10 mM solution of each drug in NMP was placed in an amount of 1 ml on the membrane. The amount of drug that had permeated through the membrane by various times in an 8-10 hour period was determined by HPLC analysis of the receptor fluid. The test was conducted in 3 replicates. […] The test solutions in this example comprised celecoxib or valdecoxib at a concentration of 1% weight/volume in various solvents. The test was conducted in 3 replicates. […] The test solutions in this example comprised celecoxib or valdecoxib at a concentration of 1% weight/volume in NMP, with or without oleic acid at 1% weight/volume. The test was conducted in 3 replicates.

A short description of data set [5]: Solubility of valdecoxib in NMP/PEG 400 mixtures at room temperature. Type of data set: physicochemical. The method, then: Solubility was determined by preparing a saturated solution of valdecoxib in the test solvent system at 80° C. and cooling this solution for 24 hours at room temperature.
Setting [6] is: in 1,3-butylene glycol, room temperature.
Setting [7] is: in crotamiton, room temperature.
Where [8] appears, read: in diethyl sebacate, room temperature.
Where [9] appears, read: in dipropylene glycol, room temperature.
Setting [10] is: in propylene glycol, room temperature.
The mark [11] stands for this setting: 0.5% poultice (crotamiton/PEG 400 solvents), 25 mm disk.

For `Cc1ccc(-c2cc(C(F)(F)F)nn2-c2ccc(S(N)(=O)=O)cc2)cc1` [celecoxib, 4-[5-(4-methylphenyl)-3-(trifluoromethyl)-1H-pyrazol-1-yl]benzenesulfonamide], the solubility in data set [1] (setting [6]) is given as 20 mg/g; in data set [1] (in DIA, room temperature) it was 94 mg/g; in data set [1] (in NMP, room temperature), 219 mg/g; in data set [1] (in PEG 400, room temperature) it was 340 mg/g; in data set [1] (setting [7]), 306 mg/g; in data set [1] (setting [8]), 77 mg/g. Further, the solubility amounted to 44 mg/g in data set [1] (setting [9]) and 28 mg/g in data set [1] (setting [10]). The skin flux in data set [2] (setting [11]) is on record as 0.008 μg/cm^2 · h; in data set [2] (1.0% gel (70% ethanol), 200 mg) it was 0.039 μg/cm^2 · h; in data set [3] it was 1.6 nmol/cm^2 · h; in data set [4] (1% weight/volume in NMP), 0.15 μg/cm^2 · h; in data set [4] (1% weight/volume in PEG 400) it was “not detectable”; in data set [4] (1% weight/volume in crotamiton), “not detectable”.
As for `CC(C(=O)O)c1cccc(C(=O)c2ccccc2)c1` (centres unmarked) [ketoprofen], the skin flux in data set [3] is on record as 33.4 nmol/cm^2 · h.
For `Cc1onc(-c2ccccc2)c1-c1ccc(S(N)(=O)=O)cc1` [valdecoxib, 4-[5-methyl-3-phenylisoxazol-4-yl]benzenesulfonamide], the solubility in data set [1] (setting [6]) was 19 mg/g; in data set [1] (in DIA, room temperature) it was 20 mg/g; in data set [1] (in NMP, room temperature) it was 190 mg/g; in data set [1] (in PEG 400, room temperature), 198 mg/g; in data set [1] (setting [7]), 165 mg/g; in data set [1] (setting [8]), 10 mg/g. The solubility in data set [1] (setting [9]) came to 67 mg/g; in data set [1] (in glycerol, room temperature), 1 mg/g; in data set [1] (setting [10]), 30 mg/g; in data set [5] (NMP:PEG 400 ratio 0:5, saturated at 80° C., cooled 24 hours at room temperature) it was 169 mg/g; in data set [5] (NMP:PEG 400 ratio 5:0) it was 190 mg/g; in data set [5] (NMP:PEG 400 ratio 5:1), 149 mg/g. Also, the solubility is on record as 126 mg/g in data set [5] (NMP:PEG 400 ratio 5:2), 100 mg/g in data set [5] (NMP:PEG 400 ratio 5:3), 73 mg/g in data set [5] (NMP:PEG 400 ratio 5:4) and 71 mg/g in data set [5] (NMP:PEG 400 ratio 5:5). In addition, the skin flux in data set [2] (setting [11]) is reported as 0.009 μg/cm^2 · h; in data set [2] (1.0% gel (70% ethanol), 200 mg) it was 0.115 μg/cm^2 · h; in data set [3], 3.3 nmol/cm^2 · h; in data set [4] (1% weight/volume in NMP), 0.51 μg/cm^2 · h; in data set [4] (1% weight/volume in PEG 400), “not detectable”; in data set [4] (1% weight/volume in crotamiton), 0.02 μg/cm^2 · h. In data set [4] (1% in NMP, FIG. 4), the “time at which amount of drug permeated reached a plateau” value is recorded as “about 4 hours”.
